# Experimental data published in patent publication US20140018316A1, “OPHTHALMIC PHARMACEUTICAL COMPOSITION” (Hayashibara Co., Ltd., priority 2005, published 2014).
# Tests used:
# pig lens = test: Swelling and cloudiness of extracted pig lenses soaked in test or control solutions (traumatic cataract model); design: key to degree of cloudiness in the lens (relative value): relative gray-scale density; uninjured lens in saline at start = 10; conditions: for degree of cloudiness in the lens (relative value) / swelling of the lens: 100 mM in physiological saline
# Experimental: Using an injured pig lens employed as a model for traumatic cataract, the influence of cyclic tetrasaccharide on the cloudiness in the lens was experimented as follows: A test solution was previously prepared by dissolving a cyclic tetrasaccharide crystal, penta hydrate, which had been prepared by the method in the later described Reference for Example 2, in physiological saline into a physiological saline containing 100 mM cyclic tetrasaccharide. As a positive control, a physiological saline containing 100 mM α,α-trehalose, a reagent grade specimen, commercialized by Hayashibara Biochemical Laboratories, Inc., Okayama, Japan, was used; andasanegativecontrol, physiological saline was used. Two milliliter aliquots of any one of the above three kinds of aqueous solutions were added to every two wells in respective commercialized 24-well culture plates. In one of the two wells containing the same kind of solution in each plate was placed a pig lens, which had been obtained from a slaughter-house, extracted by incision within three hours after the obtention and without injuring, and washing the extracted lens with physiological saline; while in the other of the two wells was placed a pig lens, which had been prepared by the same procedure as in the above but injured with a 27-gauge injection needle (commercialized by Terumo Co., Tokyo, Japan) to form an injured line, about one millimeter in length. These lens were allowed to stand at ambient temperature and macroscopically and microscopically observed their change in the degree of cloudiness and in the shape of swelling, etc. This experiment was run in a triplicate manner, and the macroscopic and microscopic observations were done just after (0), 1 hour, 2 hours, 6 hours, and 24 hours after the lenses were placed in the wells, and then observed daily over 28 days. A similar experiment was further conducted using a physiological saline containing 75 mM, 50 mM, 20 mM, 10 mM, or 1 mM cyclic tetrasaccharide and a lens that had not been injured with the injection needle. The degree of cloudiness in each lens, observed with “STEREOMICROSCOPE SZX12”, a product name of a stereomicroscope commercialized by Olympus Co., Tokyo, Japan, was expressed by photographing a transmitted light image of each lens with “PENGUIN 150CL”, a digital camera commercialized by Pixela Co., Tokyo, Japan, capturing the transmitted image by a computer using a view finder commercialized by Olympus Co., Tokyo, Japan, and expressing numerically the degree of light and shade of the captured image as a gray-scale using “Scion Image for Windows Beta 4.0.2”, a software commercialized by Scion Co., Maryland, U.S.A., to obtain a mean density for each lens. The time course change in the degree of cloudiness in each lens placed in each solution was expressed with a relative value, regarding the degree of cloudiness, just after the lens free of injury had been placed in physiological saline, as 10. The change of cloudiness and swelling are respectively in Tables 1 and 2. In Table 1, there show only the results from time 0 hour through two days and from days 7, 14 and 28.
# [1] = system: circular corneal fragment extracted from a pig eye ball; test: Corneal walleye/cloudiness and edema of pig corneal fragments soaked in test or control solutions; design: degree of corneal walleye/cloudiness (relative value): scale not given here; key to corneal edema: ◯: Corneal edema was observed.; —: No corneal edema was observed; conditions: for corneal edema / degree of corneal walleye/cloudiness (relative value): 100 mM in physiological saline
# Experimental: Experiment to examine the influence of cyclic tetrasaccharide on corneal walleye/cloudiness was conducted as follows: A physiological saline containing 100 mM cyclic tetrasaccharide was previously prepared for use as a test solution by dissolving a cyclic tetrasaccharide crystal, pentahydrate, which had been prepared by the later described method in Example for Reference 2. As a positive control solution, it was prepared a physiological saline containing 100 mM α,α-trehalose, a reagent grade specimen, commercialized by Hayashibara Biochemical Laboratories, Inc., Okayama, Japan; and as a negative control solution, physiological saline was used. Two milliliters of any one of the above three kinds of aqueous solutions were added to respective two wells in a commercialized 24-well culture plate. To each well in each culture plate a circular corneal fragment, which had been extracted from a pig eye ball obtained from a slaughterhouse by using a trephine for corneal transplantation, was placed and macroscopically and microscopically observed for changing in both the degree of corneal walleye/cloudiness and the change of corneal shape such as corneal edema. The macroscopic and microscopic observations were done just after the corneas were placed in the wells at (0) and at 1, 2, 6, 24, 48 and 72 hours after their placing. The methods of macroscopic and microscopic observations and the analysis of the time course change of corneal walleye/cloudiness were conducted by the same ones as used in Experiment 1. Tables 3 and 4 show the transition of corneal walleye/cloudiness and that of the corneal edema, respectively.
smiles,measurement,setting,value
"OC[C@H]1O[C@H](O[C@H]2O[C@H](CO)[C@@H](O)[C@H](O)[C@H]2O)[C@H](O)[C@@H](O)[C@@H]1O [Positive control solution, α,α-trehalose, reference compound]",degree of cloudiness in the lens (relative value),"pig lens; injured lens, 1 hour",10
same,degree of cloudiness in the lens (relative value),"pig lens; injured lens, 2 hours",10
same,degree of cloudiness in the lens (relative value),"pig lens; injured lens, 6 hours",15
same,degree of cloudiness in the lens (relative value),"pig lens; injured lens, 24 hours",46
same,degree of cloudiness in the lens (relative value),"pig lens; injured lens, 2 days",89
same,swelling of the lens,"pig lens; injured lens, 2 days",◯ (swelling was observed)
same,degree of cloudiness in the lens (relative value),"pig lens; injured lens, time 0",10
same,degree of cloudiness in the lens (relative value),"pig lens; no injury, 1 hour",13
same,degree of cloudiness in the lens (relative value),"pig lens; no injury, 2 hours",13
same,degree of cloudiness in the lens (relative value),"pig lens; no injury, 6 hours",12
same,degree of cloudiness in the lens (relative value),"pig lens; no injury, 24 hours",14
same,degree of cloudiness in the lens (relative value),"pig lens; no injury, 2 days",19
same,degree of cloudiness in the lens (relative value),"pig lens; no injury, 7 days",36
same,degree of cloudiness in the lens (relative value),"pig lens; no injury, 14 days",39
same,degree of cloudiness in the lens (relative value),"pig lens; no injury, 28 days",75
same,swelling of the lens,"pig lens; no injury, 28 days",◯ (swelling was observed)
same,degree of cloudiness in the lens (relative value),"pig lens; no injury, time 0",10
same,swelling of the lens (in words),"pig lens; 100 mM, injured lens, 2 days after initiating observation",observed to have swelling from 2 days
same,cloudiness in the lens compared with the negative control solution,"pig lens; 100 mM, lenses with no injury",inhibited
same,swelling of the lens (in words),"pig lens; 100 mM, lenses with no injury, on 28 days",swelling of the lenses was macroscopically observed
same,corneal edema,[1]; 1 hour,—
same,degree of corneal walleye/cloudiness (relative value),[1]; 1 hour,11
same,corneal edema,[1]; 2 hours,—
same,degree of corneal walleye/cloudiness (relative value),[1]; 2 hours,11
same,corneal edema,[1]; 6 hours,—
same,degree of corneal walleye/cloudiness (relative value),[1]; 6 hours,13
same,corneal edema,[1]; 24 hours,◯
same,degree of corneal walleye/cloudiness (relative value),[1]; 24 hours,30
same,corneal edema,[1]; 48 hours,◯
same,degree of corneal walleye/cloudiness (relative value),[1]; 48 hours,60
same,corneal edema,[1]; 72 hours,◯
same,degree of corneal walleye/cloudiness (relative value),[1]; 72 hours,70
same,corneal edema,[1]; time 0,—
same,degree of corneal walleye/cloudiness (relative value),[1]; time 0,10
same,corneal edema (in words),"[1]; 100 mM, at 24 hours",macroscopic corneal edema
